# In patent US20010033864A1, “Low dose entecavir formulation and use” (priority 2000, published 2001):
# What was measured:
# hepatitis B virus [1] = assay: 24-week randomized, double-blind, lamivudine-controlled trial of safety and antiviral activity in chronic hepatitis B; assay type: in vivo, human; settings: 24 weeks
# Procedure: The safety and antiviral activity of three doses of entecavir (0.01 mg, 0.1 mg and 0.5 mg) given once daily for 24 weeks were studies in adults with chronic hepatitis B in a randomized, double-blind, lamivudine (100 mg QD) controlled trial.
# hepatitis B virus [2] = assay: 28-day randomized, double-blind, placebo-controlled, dose-escalating trial of safety and antiviral activity in chronic hepatitis B; assay type: in vivo, human; settings: for mean log reduction in hepatitis B virus DNA viral levels in the blood: human subjects with chronic HBV infection, day 28
# Procedure: The safety and antiviral activity of entecavir given for 28 days to human subjects with chronic hepatitis B virus infection was studied in a randomized, double-blind, placebo-controlled, dose-escalating trial. […] The mean log reduction in hepatitis B virus DNA viral levels in the blood at day 28 were 2.21, 2.25, 2.81, and 2.42 for the 0.05, 0.1, 0.5 and 1.0 mg once daily doses of entecavir, respectively.
compound,measurement,setting,value
"C=C1C(CO)C(O)C[C@@H]1n1cnc2c(=O)[nH]c(N)nc21 (stereo partly drawn) [Entecavir, [1S-(1α,3α, 4β)]-2-amino-1,9-dihydro-9-[4-hydroxy-3-(hydroxymethyl)-2-methylenecyclopentyl]-6H-purin-6-one]",safety / tolerability,"hepatitis B virus [1]; all doses (0.01, 0.1, 0.5 mg once daily)",well tolerated
same,antiviral activity,"hepatitis B virus [1]; all three doses (0.01, 0.1, 0.5 mg once daily), adults with chronic hepatitis B",potent antiviral activity
same,reductions in hepatitis B virus DNA viral levels in blood compared to lamivudine,"hepatitis B virus [1]; two higher doses (0.1 mg and 0.5 mg once daily), vs lamivudine 100 mg QD",significantly greater reductions
same,safety / tolerability,"hepatitis B virus [2]; 0.05-1.0 mg once daily for 28 days, human subjects",well tolerated
same,antiviral activity,"hepatitis B virus [2]; all doses tested (0.05, 0.1, 0.5, 1.0 mg once daily), 28 days",potent antiviral activity
same,mean log reduction in hepatitis B virus DNA viral levels in the blood,hepatitis B virus [2]; 0.05 mg once daily,2.21 log
same,mean log reduction in hepatitis B virus DNA viral levels in the blood,hepatitis B virus [2]; 0.1 mg once daily,2.25 log
same,mean log reduction in hepatitis B virus DNA viral levels in the blood,hepatitis B virus [2]; 0.5 mg once daily,2.81 log
same,mean log reduction in hepatitis B virus DNA viral levels in the blood,hepatitis B virus [2]; 1.0 mg once daily,2.42 log
